Common to all, as to format: physicochemical
Data set [1] can be described thus: Absorption properties of the terbium complexes. The following applies: 0.01M TRIS/HCl buffer at pH = 7.0. From the text:
By way of example, all of the absorption and emission properties of the terbium complexes synthesized from ligands (I-1) to (I-4) in accordance with the invention are summarized in Table 1 below: […]

A short description of data set [2]: Emission properties: luminescence half-life τ and luminescence quantum yield φ in H2O and D2O. The following applies: for Emission τ (luminescence half-life): error estimated ±5%; for Emission φ (luminescence quantum yield): error estimated ±15%. The source says:
The complexes according to the invention have varied applications, depending on the nature of the substituents of the pyridyl group of the ligand.
By way of example, all of the absorption and emission properties of the terbium complexes synthesized from ligands (I-1) to (I-4) in accordance with the invention are summarized in Table 1 below:
The parameters φ and τ represent, respectively, the luminescence quantum yields and the luminescence half-lives. They may be measured in water and in D2O.

Data set [3] can be described thus: Stability of the terbium complexes in various buffers (luminescence half-life τ). The source says:
By way of example, the stability of the terbium complexes synthesized from ligands (I-1) to (I-4) in accordance with the invention in various buffers is given in Table 2 below. By way of comparison, Table 2 also gives the stability of a terbium complex TbL4 of the prior art corresponding to the following formula: […]

Where “and” joins values, the source holds several entries; their conditions need not be identical. Identical values can stand only once.

Take `CCOP(=O)([O-])CN(CC(=O)[O-])Cc1ccn(-c2cc(C#Cc3cc(OCCOC)c(C(=O)NCCCC(=O)[O-])cc3OCCOC)cc(-n3ccc(CN(CC(=O)[O-])CP(=O)([O-])OCC)n3)n2)n1.[Na+].[Na+].[Na+].[Na+].[Na+].[Tb+3]` [Tb(I-5)]: the “Absorption λabs” value in data set [1] is 283 nm and 328 nm. Moreover, the quantum yields entry in data set [2] is “virtually quantitative”. The “Emission τ (luminescence half-life)” value in data set [2] (D2O) is 0.0031 s; in data set [2] (H2O) it was 0.0026 s. For the same molecule, the “Emission φ (luminescence quantum yield)” value in data set [2] (D2O) is listed as 96%; in data set [2] (H2O) it was 88%. Besides, the τ in data set [3] (H2O, estimated error ±5%) is recorded as 2.6 ms; in data set [3] (Phosphate 0.1M, pH = 7.0), 2.6 ms; in data set [3] (Tris 50 mM-Serum 50%, pH = 7.0), 2.5 ms; in data set [3] (Tris 0.1M, pH = 7.0) it was 2.6 ms; in data set [3] (Tris 0.1M-EDTA 10 mM, pH = 7.0) it was 2.6 ms; in data set [3] (Tris 0.1M-KF 400 mM, pH = 7.0) it was 2.5 ms.

`CCOP(=O)([O-])CN(CC(=O)[O-])Cc1ccn(-c2cc(C#Cc3cc(OCCOC)c(C#CCCCCC(=O)[O-])cc3OCCOC)cc(-n3ccc(CN(CC(=O)[O-])CP(=O)([O-])OCC)n3)n2)n1.[Na+].[Na+].[Na+].[Na+].[Na+].[Tb+3]` [Tb(I-6)]: in data set [1], the “Absorption λabs” value is 275 nm and 328 nm. Besides, the “Emission τ (luminescence half-life)” value was 0.0032 s in data set [2] (D2O) and 0.0026 s in data set [2] (H2O). The figures for the “Emission φ (luminescence quantum yield)” value in data set [2] (D2O) and in data set [2] (H2O) were 35% and 26%, respectively. The τ is given as 2.6 ms in data set [3] (H2O, estimated error ±5%); 2.6 ms in data set [3] (Phosphate 0.1M, pH = 7.0); 2.3 ms in data set [3] (Tris 50 mM-Serum 50%, pH = 7.0); 2.4 ms in data set [3] (Tris 0.1M, pH = 7.0); 2.5 ms in data set [3] (Tris 0.1M-EDTA 10 mM, pH = 7.0); 2.3 ms in data set [3] (Tris 0.1M-KF 400 mM, pH = 7.0).

For `CCOP(=O)([O-])CN(Cc1ccn(-c2cc(C#Cc3cc(OCCOC)c(C#CCCCCC(=O)[O-])cc3OCCOC)cc(-n3ccc(CN(CP(=O)([O-])OCC)CP(=O)([O-])OCC)n3)n2)n1)CP(=O)([O-])OCC.[Na+].[Na+].[Na+].[Na+].[Na+].[Tb+3]` [Tb(I-8)], the “Absorption λabs” value in data set [1] was 272 nm and 327 nm. The “Emission τ (luminescence half-life)” value was 0.0035 s in data set [2] (D2O) and 0.0032 s in data set [2] (H2O). Further, the “Emission φ (luminescence quantum yield)” value in data set [2] (D2O) is listed as 30%; in data set [2] (H2O) it was 26%. For the same molecule, the τ is on record as 3.2 ms in data set [3] (H2O, estimated error ±5%); 3.2 ms in data set [3] (Phosphate 0.1M, pH = 7.0); 3.0 ms in data set [3] (Tris 50 mM-Serum 50%, pH = 7.0); 3.1 ms in data set [3] (Tris 0.1M, pH = 7.0); 3.1 ms in data set [3] (Tris 0.1M-EDTA 10 mM, pH = 7.0); 3.0 ms in data set [3] (Tris 0.1M-KF 400 mM, pH = 7.0).

These data come from US9328088B2, “Luminescent probes for biological labeling and imaging, and process for preparing the same” (CENTRE NATIONAL DE LA RECHERCHE SCIENTIFIQUE, priority 2011, dated 2016).
